Results: patent US20070128217A1 (priority 2003, published 2007)

Columns and labels:
[1] = system: antibodies in sera from SARS patients (sera 1a, 1b, 2, 6, 37, 62, London, SARS-yellow, SARS-green); type: binding, human; parameters: Binding of serum 6 to linear peptides of protein X1 of SARS-CoV Urbani / Binding of serum 37 to linear peptides of protein X1 of SARS-CoV Urbani / Binding of serum 6 to looped/cyclic peptide (PEPSCAN-ELISA) / Binding of serum 37 to looped/cyclic peptide (PEPSCAN-ELISA) / Binding of serum 37 to looped/cyclic peptides of protein X1 of SARS-CoV Urbani / Binding of serum 6 to linear peptides of protein X2 / Binding of serum 37 to linear peptides of protein X2 / Binding of serum 37 to looped/cyclic peptides of protein X2 of SARS-CoV Urbani / Binding of serum 6 to linear peptides of protein M of SARS-CoV Urbani / Binding of serum 37 to linear peptides of protein M of SARS-CoV Urbani / Binding of serum 6 to looped/cyclic peptides of protein M of SARS-CoV Urbani / Binding of serum 37 to looped/cyclic peptides of protein M of SARS-CoV Urbani / Binding of serum 6 to linear peptides of protein X3 of SARS-CoV Urbani / Binding of serum 37 to linear peptides of protein X3 of SARS-CoV Urbani / Binding of serum 37 to looped/cyclic peptides of protein X3 of SARS-CoV Urbani / Binding of serum 6 to linear peptides of protein X4 of SARS-CoV Urbani / Binding of serum 37 to linear peptides of protein X4 of SARS-CoV Urbani / Binding of serum 37 to looped/cyclic peptides of protein X4 of SARS-CoV Urbani / Binding of serum 6 to linear peptides of protein X5 of SARS-CoV Urbani / Binding of serum 37 to linear peptides of protein X5 of SARS-CoV Urbani / Binding of serum 37 to looped/cyclic peptides of protein X5 of SARS-CoV Urbani / Binding of serum 6 to linear peptides of protein N of SARS-CoV Urbani / Binding of serum 37 to linear peptides of protein N of SARS-CoV Urbani / Binding of serum 6 to linear peptide (PEPSCAN-ELISA) / Binding of serum 1a to looped/cyclic peptides of protein N of SARS-CoV Urbani / Binding of serum 1b to looped/cyclic peptides of protein N of SARS-CoV Urbani / Binding of serum 2 to looped/cyclic peptides of protein N of SARS-CoV Urbani / Binding of serum 6 to looped/cyclic peptides of protein N of SARS-CoV Urbani / Binding of serum 37 to looped/cyclic peptides of protein N of SARS-CoV Urbani / Binding of serum 62 to looped/cyclic peptides of protein N of SARS-CoV Urbani / Binding of serum London to looped/cyclic peptides of protein N of SARS-CoV Urbani / Binding of serum SARS-green to looped/cyclic peptides of protein N of SARS-CoV Urbani: unit not given here
[2] = system: control sera (pooled serum of ten healthy LUMC hospital workers; commercial negative donor pooled serum from the Dutch bloodbank); type: binding, human; parameters: Binding of Control serum LUMC to linear peptides / Binding of Control serum Blood-bank to linear peptides / Binding of Control serum LUMC to looped peptides / Binding of Control Serum Blood-Bank to Looped peptides / Binding of Control serum LUMC to linear peptides of the protein M of SARS-CoV Urbani / Binding of Control serum Blood-bank to linear peptides of the protein M of SARS-CoV Urbani / Binding of Control serum LUMC to looped peptides of the protein M of SARS-CoV Urbani / Binding of Control Serum Blood-Bank to Looped peptides of the protein M of SARS-CoV Urbani: unit not given here
[3] = system: rabbit serum obtained by immunizing a rabbit with the SARS-CoV strain Frankfurt 1; type: binding; parameters: Binding of a rabbit serum to linear peptides / Binding of a rabbit serum to looped peptides / Rabbit serum linear peptides / Rabbit serum looped peptides / Binding of a rabbit serum to linear peptides of protein N of SARS-CoV Urbani (Rabbit serum linear peptides) / Binding of a rabbit serum to looped/cyclic peptides of protein N of SARS-CoV Urbani (Rabbit serum looped peptides): unit not given here
[4] = system: recombinant human anti-SARS-CoV antibody 03-018; type: binding; parameters: Binding of antibody 03-018 to linear peptides of the N protein of SARS-CoV Urbani / Binding of antibody 03-018 to looped/cyclic peptides of the N protein of SARS-CoV Urbani: unit not given here

LALLLLDRLNQLESK
0.5: Binding of serum 37 to linear peptide (PEPSCAN-ELISA) [1] | Binding of serum 37 to looped/cyclic peptides of protein N of SARS-CoV Urbani [1] | Binding of serum 62 to linear peptide (PEPSCAN-ELISA) [1] | Binding of serum 62 to looped/cyclic peptides of protein N of SARS-CoV Urbani [1] | Binding of serum SARS-yellow to linear peptide (PEPSCAN-ELISA) [1]
0.4: Binding of serum 2 to looped/cyclic peptides of protein N of SARS-CoV Urbani [1] | Binding of serum London to looped/cyclic peptides of protein N of SARS-CoV Urbani [1] | Binding of serum SARS-green to linear peptide (PEPSCAN-ELISA) [1] | Binding of serum SARS-yellow to looped/cyclic peptides of protein N of SARS-CoV Urbani [1]
0.1: Binding of serum 1b to linear peptide (PEPSCAN-ELISA) [1] | Binding of serum 2 to linear peptide (PEPSCAN-ELISA) [1] | Binding of serum 6 to linear peptide (PEPSCAN-ELISA) [1] | Binding of a rabbit serum to linear peptides of protein N of SARS-CoV Urbani (Rabbit serum linear peptides) [3] | Binding of antibody 03-018 to linear peptides of the N protein of SARS-CoV Urbani [4]
0.7: Binding of serum London to linear peptide (PEPSCAN-ELISA) [1] | Binding of Control Serum Blood-Bank to Looped peptides [2] | Binding of Control serum Blood-bank to linear peptides [2]
0.2: Binding of serum 1a to linear peptide (PEPSCAN-ELISA) [1] | Binding of serum 1b to looped/cyclic peptides of protein N of SARS-CoV Urbani [1] | Binding of serum 6 to looped/cyclic peptides of protein N of SARS-CoV Urbani [1] | Binding of antibody 03-018 to looped/cyclic peptides of the N protein of SARS-CoV Urbani [4]
0.3: Binding of serum 1a to looped/cyclic peptides of protein N of SARS-CoV Urbani [1]
0.6: Binding of serum SARS-green to looped/cyclic peptides of protein N of SARS-CoV Urbani [1] | Binding of Control serum LUMC to linear peptides [2] | Binding of Control serum LUMC to looped peptides [2] | Binding of a rabbit serum to looped/cyclic peptides of protein N of SARS-CoV Urbani (Rabbit serum looped peptides) [3]

LESKVSGKGQQQQGQ
0.2: Binding of serum 2 to linear peptide (PEPSCAN-ELISA) [1]
0.7: Binding of serum 2 to looped/cyclic peptides of protein N of SARS-CoV Urbani [1] | Binding of serum 37 to looped/cyclic peptides of protein N of SARS-CoV Urbani [1] | Binding of serum SARS-yellow to linear peptide (PEPSCAN-ELISA) [1] | Binding of serum SARS-yellow to looped/cyclic peptides of protein N of SARS-CoV Urbani [1] | Binding of Control serum LUMC to linear peptides [2] | Binding of Control serum LUMC to looped peptides [2]
0.8: Binding of Control Serum Blood-Bank to Looped peptides [2] | Binding of Control serum Blood-bank to linear peptides [2]
0.1: Binding of serum 1b to linear peptide (PEPSCAN-ELISA) [1] | Binding of serum 6 to linear peptide (PEPSCAN-ELISA) [1] | Binding of a rabbit serum to linear peptides of protein N of SARS-CoV Urbani (Rabbit serum linear peptides) [3] | Binding of antibody 03-018 to linear peptides of the N protein of SARS-CoV Urbani [4]
0.6: Binding of serum 37 to linear peptide (PEPSCAN-ELISA) [1] | Binding of serum 62 to linear peptide (PEPSCAN-ELISA) [1] | Binding of serum 62 to looped/cyclic peptides of protein N of SARS-CoV Urbani [1] | Binding of a rabbit serum to looped/cyclic peptides of protein N of SARS-CoV Urbani (Rabbit serum looped peptides) [3]
0.4: Binding of serum 1a to looped/cyclic peptides of protein N of SARS-CoV Urbani [1] | Binding of serum SARS-green to linear peptide (PEPSCAN-ELISA) [1] | Binding of serum SARS-green to looped/cyclic peptides of protein N of SARS-CoV Urbani [1]
1.8: Binding of serum London to looped/cyclic peptides of protein N of SARS-CoV Urbani [1]
0.3: Binding of serum 1a to linear peptide (PEPSCAN-ELISA) [1] | Binding of serum 1b to looped/cyclic peptides of protein N of SARS-CoV Urbani [1] | Binding of antibody 03-018 to looped/cyclic peptides of the N protein of SARS-CoV Urbani [4]
0.5: Binding of serum 6 to looped/cyclic peptides of protein N of SARS-CoV Urbani [1] | Binding of serum London to linear peptide (PEPSCAN-ELISA) [1]

LGTGPEASLPYGANK
0.1: Binding of serum 1b to linear peptides of protein N of SARS-CoV Urbani [1] | Binding of antibody 03-018 to linear peptides of the N protein of SARS-CoV Urbani [4]
0.4: Binding of serum 62 to looped/cyclic peptides of protein N of SARS-CoV Urbani [1] | Binding of serum London to looped/cyclic peptides of protein N of SARS-CoV Urbani [1] | Binding of serum SARS-green to looped/cyclic peptides of protein N of SARS-CoV Urbani [1] | Binding of a rabbit serum to looped/cyclic peptides of protein N of SARS-CoV Urbani (Rabbit serum looped peptides) [3]
0.9: Binding of Control serum Blood-bank to linear peptides [2] | Binding of Control serum LUMC to linear peptides [2]
0.2: Binding of serum 1b to looped/cyclic peptides of protein N of SARS-CoV Urbani [1] | Binding of serum 6 to linear peptides of protein N of SARS-CoV Urbani [1] | Binding of serum 6 to looped/cyclic peptides of protein N of SARS-CoV Urbani [1] | Binding of a rabbit serum to linear peptides of protein N of SARS-CoV Urbani (Rabbit serum linear peptides) [3] | Binding of antibody 03-018 to looped/cyclic peptides of the N protein of SARS-CoV Urbani [4]
0.5: Binding of serum 2 to looped/cyclic peptides of protein N of SARS-CoV Urbani [1] | Binding of serum 37 to looped/cyclic peptides of protein N of SARS-CoV Urbani [1] | Binding of serum London to linear peptides of protein N of SARS-CoV Urbani [1] | Binding of serum SARS-green to linear peptides of protein N of SARS-CoV Urbani [1] | Binding of serum SARS-yellow to looped/cyclic peptides of protein N of SARS-CoV Urbani [1] | Binding of Control Serum Blood-Bank to Looped peptides [2]
0.6: Binding of Control serum LUMC to looped peptides [2]
0.7: Binding of serum 37 to linear peptides of protein N of SARS-CoV Urbani [1] | Binding of serum 62 to linear peptides of protein N of SARS-CoV Urbani [1] | Binding of serum SARS-yellow to linear peptides of protein N of SARS-CoV Urbani [1]
0.3: Binding of serum 1a to linear peptides of protein N of SARS-CoV Urbani [1] | Binding of serum 1a to looped/cyclic peptides of protein N of SARS-CoV Urbani [1] | Binding of serum 2 to linear peptides of protein N of SARS-CoV Urbani [1]

LLLLDRLNQLESKVS
0.3: Binding of serum London to looped/cyclic peptides of protein N of SARS-CoV Urbani [1]
0.1: Binding of serum 1b to linear peptide (PEPSCAN-ELISA) [1] | Binding of serum 1b to looped/cyclic peptides of protein N of SARS-CoV Urbani [1] | Binding of serum 6 to linear peptide (PEPSCAN-ELISA) [1] | Binding of serum 6 to looped/cyclic peptides of protein N of SARS-CoV Urbani [1] | Binding of a rabbit serum to linear peptides of protein N of SARS-CoV Urbani (Rabbit serum linear peptides) [3]
0.6: Binding of Control serum LUMC to linear peptides [2]
0.0: Binding of serum SARS-yellow to looped/cyclic peptides of protein N of SARS-CoV Urbani [1] | Binding of a rabbit serum to looped/cyclic peptides of protein N of SARS-CoV Urbani (Rabbit serum looped peptides) [3]
0.2: Binding of serum 1a to linear peptide (PEPSCAN-ELISA) [1] | Binding of serum 1a to looped/cyclic peptides of protein N of SARS-CoV Urbani [1] | Binding of serum 2 to linear peptide (PEPSCAN-ELISA) [1] | Binding of serum 2 to looped/cyclic peptides of protein N of SARS-CoV Urbani [1] | Binding of serum 62 to looped/cyclic peptides of protein N of SARS-CoV Urbani [1] | Binding of serum SARS-green to looped/cyclic peptides of protein N of SARS-CoV Urbani [1] | Binding of antibody 03-018 to linear peptides of the N protein of SARS-CoV Urbani [4] | Binding of antibody 03-018 to looped/cyclic peptides of the N protein of SARS-CoV Urbani [4]
0.4: Binding of serum 37 to looped/cyclic peptides of protein N of SARS-CoV Urbani [1] | Binding of serum 62 to linear peptide (PEPSCAN-ELISA) [1] | Binding of serum SARS-green to linear peptide (PEPSCAN-ELISA) [1] | Binding of serum SARS-yellow to linear peptide (PEPSCAN-ELISA) [1] | Binding of Control Serum Blood-Bank to Looped peptides [2] | Binding of Control serum LUMC to looped peptides [2]
0.7: Binding of serum 37 to linear peptide (PEPSCAN-ELISA) [1] | Binding of serum London to linear peptide (PEPSCAN-ELISA) [1] | Binding of Control serum Blood-bank to linear peptides [2]
